From patent publication US9877969B2, “Treatments with triazines” (CEVA SANTE ANIMALE, priority 2012, dated 2018)

What was measured:
Assay type in all cases: in vivo
[1] = tested on: Isospora suis; assay: Anti-coccidial efficacy in piglets orally challenged with Isospora suis (Example B); details: single i.m. 20 or 40 mg/kg (G1, G2)
Experimental: (§1) • Group 1: 10 piglets 2 days old were injected with one intramuscular dose of toltrazuril C629 (dose=20 mg toltrazuril per kg body weight equivalent to 0.4 mL/Kg body weight) on SD0. • Group 2: 11 piglets 2 days old were injected with one intramuscular dose of toltrazuril C629 (dose=40 mg toltrazuril per kg body weight equivalent to 0.8 mL/kg body weight) on SD0. • Group 3: 9 piglets 2 days old were dosed orally with the standard commercial formulation of toltrazuril, Cevazuril® (dose=20 mg toltrazuril per kg body weight equivalent to 0.4 mL/Kg body weight) on SD0. • Group 4: 8 piglets, left untreated.
(§2) All four (4) groups of piglets were injected on SD0 with iron injection (Gleptosil®) at the dose rate of 1 ml per piglet. 3 days after treatment (on SD3), the piglets were orally challenged with a characterized strain of Isospora suis.
(§3) The following study parameters were used to assess the efficacy of the test products: • Local and general tolerance (for Groups 1 and 2); • Occurrence of diarrhea and fecal consistency; • Oocyst excretion; • Body weight development; and • Serum concentrations of toltrazuril and its metabolite toltrazuril sulfone (e.g., ponazuril) in Groups 1, 2 and 3. Results

[2] = Local and general tolerance in 2-day-old piglets (Example B); details: all tested doses (i.m. 20 and 40 mg/kg)
Experimental: as §1, §2, §3

[3] = Local and general tolerance of a single intramuscular injection in 3-day-old piglets (Example A)
Experimental: (§4) This target animal safety and efficacy study was conducted on a farm with a known history of cocciodiosis. The main objective was to study the safety and efficacy of intramuscular injection of toltrazuril in comparison to the standard oral application. • Group 1: 8 piglets 3 days old were injected by a single intramuscular dose of toltrazuril (dose=20 mg toltrazuril per kg body weight equivalent to 0.4 mL/kg body weight) on SD0. • Group 2: 8 piglets 3 days old were injected by one intramuscular dose of toltrazuril (60 mg toltrazuril per kg body weight equivalent to 1.2 mL/Kg body weight) on SD0. • Group 3: 8 piglets 3 days old were dosed orally with the standard commercial formulation of toltrazuril, Cevazuril® (dose=20 mg toltrazuril per kg body weight equivalent to 0.4 mL/Kg body weight) on SD0. • Group 4: 12 piglets 3 days old, left untreated.
(§5) All four (4) groups of piglets were injected on SD0 with iron (Gleptosil®) at the dose rate of 1 ml per piglet.
(§6) The local and general tolerances, as well as body weight development, were assessed.

[4] = Pharmacokinetics: serum concentrations of toltrazuril and toltrazuril sulfone in 2-day-old piglets (Example B); details: after intramuscular application
Experimental: as §1, §2, §3

[5] = Body weight development of piglets on a farm with a known history of coccidiosis (Example A)
Experimental: as §4, §5, §6

## Cc1cc(-n2c(=O)[nH]c(=O)n(C)c2=O)ccc1Oc1ccc(SC(F)(F)F)cc1 [toltrazuril]
[1]; Isospora suis challenge on SD3
  Fecal consistency: unchanged
  Oocyst excretion: No oocyst excretion
[1]; infected animals
  Weight gain versus control animals (G4): gained more weight than the control animals
[2]
  Tolerance: well tolerated
[3]; intramuscular 1.2 mL/Kg body weight
  Time to disappearance of local reaction (edema) post injection: less than 1 week
[3]; intramuscular 1.2 mL/Kg body weight (60 mg/kg)
  Local reaction: limited local reaction (edema) in some piglets
[3]; single intramuscular doses up to 60 mg/kg, 3-day-old piglets
  General tolerance: well tolerated
[3]; single intramuscular injection, 3-day-old piglets
  Pain at injection: No pain
[4]
  Absorption: well absorbed
[5]; intramuscularly treated piglets, at SD0+29 days
  Weight gain versus control non-treated piglets: +2 kg
[5]; treated piglets
  Body weight development: normal
